Legend:
[1] = test system: weed plants such as Sinapis alba, Chrysanthemum segetum, Avena sativa, Stellaria media, Echinochloa crus-galli, Lolium multiflorum, Setaria viridis, Abutilon …; test: Pre-emergence effect on weeds (greenhouse pot test, visual scoring); type: in vivo; conditions: applied pre-emergence at a rate of 0.3 kg or less of active substance per hectare; visual scoring after 3 to 4 weeks vs untreated controls
Description: Seeds or sections of rhizome from monocot and dicot weed plants were laid out in sandy loam soil in cardboard pots, and covered with soil. The compounds of the invention, formulated as wettable powders or emulsifiable concentrates, were then applied, in the form of aqueous suspensions or emulsions, at various dosages, onto the surface of the covering earth, at an application rate of 600 to 800 l of water per hectare (converted). Following the treatment, the pots were placed in a greenhouse and maintained under good growth conditions for the weeds. Visual scoring of the plant damage or emergence damage was made when the test plants had emerged, after a test time of 3 to 4 weeks, in comparison to untreated controls.

[2] = test system: weed plants such as Sinapis alba, Echinochloa crus-galli, Lolium multiflorum, Chrysanthemum segetum, Setaria viridis, Abutilon theophrasti, Amaranthus …; test: Post-emergence effect on weeds (greenhouse pot test, visual scoring); type: in vivo; conditions: applied post-emergence (three-leaf stage) at a rate of 0.3 kg or less of active substance per hectare; visual scoring after about 3 to 4 weeks vs untreated controls
Method: Seeds or sections of rhizome from monocot and dicot broadleaf weeds were laid out in sandy loam soil in plastic pots, covered with earth, and cultivated in a greenhouse under good growth conditions. Three weeks after sowing, the test plants were treated at the three-leaf stage. The compounds of the invention, formulated as wettable powders or as emulsion concentrates, were sprayed in different dosages onto the green parts of the plants, at an application rate of 600 to 800 l of water per hectare (converted). After the test plants had stood in the greenhouse under optimum growth conditions for a period of about 3 to 4 weeks, the effect of the products was scored visually in comparison to untreated controls.

Row | Structure (SMILES) | herbicidal action against weed plants, pre-emergence [1] | herbicidal action against weed plants, post-emergence [2]
1 | Cc1cc(C)nc(NC(=O)NS(=O)(=O)c2c(I)cccc2OS(C)(=O)=O)n1 [Compound 1.471] | very good herbicidal action | very good herbicidal action
2 | COc1cc(Cl)nc(NC(=O)NS(=O)(=O)c2c(I)cccc2OS(C)(=O)=O)n1 [Compound 1.472] | very good herbicidal action | very good herbicidal action
3 | COc1nc(NC(=O)NS(=O)(=O)c2c(I)cccc2OS(C)(=O)=O)nc(OC)n1 [Compound 1.476] | very good herbicidal action | very good herbicidal action
4 | COc1cc(OC)nc(NC(=O)NS(=O)(=O)c2c(I)cccc2OS(=O)(=O)N(C)C)n1 [Compound 1.507] | very good herbicidal action | very good herbicidal action
5 | Cc1cc(C)nc(NC(=O)NS(=O)(=O)c2c(I)cccc2OS(=O)(=O)N(C)C)n1 [Compound 1.509] | very good herbicidal action | very good herbicidal action
6 | COc1cc(Cl)nc(NC(=O)NS(=O)(=O)c2c(I)cccc2OS(=O)(=O)N(C)C)n1 [Compound 1.510] | very good herbicidal action | very good herbicidal action
7 | COc1nc(NC(=O)NS(=O)(=O)c2c(I)cccc2OS(=O)(=O)N(C)C)nc(OC)n1 [Compound 1.511] | very good herbicidal action | very good herbicidal action
8 | CSc1cccc(I)c1S(=O)(=O)NC(=O)Nc1nc(C)cc(C)n1 [Compound 1.550] | very good herbicidal action | very good herbicidal action
9 | COc1cc(Cl)nc(NC(=O)NS(=O)(=O)c2c(I)cccc2SC)n1 [Compound 1.551] | very good herbicidal action | very good herbicidal action
10 | CCCCOc1cccc(I)c1S(=O)(=O)NC(=O)Nc1nc(C)nc(OC)n1 [Compound 1.553] | very good herbicidal action | very good herbicidal action
11 | CCCCOc1cccc(I)c1S(=O)(=O)NC(=O)Nc1nc(C)cc(C)n1 [Compound 1.554] | very good herbicidal action | very good herbicidal action
12 | CCCCOc1cccc(I)c1S(=O)(=O)NC(=O)Nc1nc(Cl)cc(OC)n1 [Compound 1.555] | very good herbicidal action | very good herbicidal action
13 | CCCCOc1cccc(I)c1S(=O)(=O)NC(=O)Nc1nc(OC)nc(OC)n1 [Compound 1.556] | very good herbicidal action | very good herbicidal action
14 | CCC(C)Oc1cccc(I)c1S(=O)(=O)NC(=O)Nc1nc(C)nc(OC)n1 (centres unmarked) [Compound 1.557] | very good herbicidal action | very good herbicidal action
15 | CCC(C)Oc1cccc(I)c1S(=O)(=O)NC(=O)Nc1nc(C)cc(C)n1 (centres unmarked) [Compound 1.558] | very good herbicidal action | very good herbicidal action
16 | CCC(C)Oc1cccc(I)c1S(=O)(=O)NC(=O)Nc1nc(OC)nc(OC)n1 (centres unmarked) [Compound 1.560] | very good herbicidal action | very good herbicidal action
17 | COc1cc(Cl)nc(NC(=O)NS(=O)(=O)c2c(I)cccc2OCC(C)C)n1 [Compound 1.563] | very good herbicidal action | very good herbicidal action
18 | COc1cc(OC)nc(NC(=O)NS(=O)(=O)c2c(OC)ccc(Cl)c2I)n1 [Compound 1.598] | very good herbicidal action | very good herbicidal action
19 | COc1nc(C)nc(NC(=O)NS(=O)(=O)c2c(OC)ccc(Cl)c2I)n1 [Compound 1.599] | very good herbicidal action | very good herbicidal action
20 | COc1ccc(Cl)c(I)c1S(=O)(=O)NC(=O)Nc1nc(C)cc(C)n1 [Compound 1.600] | very good herbicidal action | very good herbicidal action
21 | COc1cc(Cl)nc(NC(=O)NS(=O)(=O)c2c(OC)ccc(Cl)c2I)n1 [Compound 1.601] | very good herbicidal action | very good herbicidal action
22 | COc1nc(NC(=O)NS(=O)(=O)c2c(OC)ccc(Cl)c2I)nc(OC)n1 [Compound 1.602] | very good herbicidal action | very good herbicidal action
